In brackets after ≈: the same amount, converted by molar mass. Bridge positions count the residues as written; N and C are the ends. Square brackets hold non-standard residues; d marks the D form. Peptide text beside a SMILES is read from it. I, II: the chains in the order shown. dNMeF = CN[C@H](Cc1ccccc1)C(=O)O
Assays:
A. baumannii = assay type: cell-based
How it was run: (§1)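 Values come from three repeat experiments. Growth and compound dilution both used Mueller Hinton broth, with the dilution series extended to well 11 and every incubation held at 37 °C.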

MRSA = assay type: cell-based, Staphylococcus aureus
How it was run: as §1

E. coli = assay type: cell-based, Escherichia coli
Description: Bacteria were grown on Mueller Hinton broth (oxoid). All incubations were at 37° C. Dilutions were carried out using Mueller Hinton. […] This process was repeated up to well 11. […] This was repeated three times. […] Results are tabulated in the Examples.

ATCC 29212 = assay: microbe, parasite or virus in culture; details: Enterococcus
How it was run: (§2)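 Twofold broth microdilution in Mueller Hinton from a 512 μg/ml starting well, peptides dissolved in DMSO. Plates incubated 24 hours at 37° C, in triplicate. MIC read as lowest concentration without visible growth.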

MRSA DR 42412 (sputum) = assay: microbe, parasite or virus in culture; details: Staphylococcus aureus, MRSA
How it was run: as §2

VRE ATCC 700802 = assay: microbe, parasite or virus in culture; details: Enterococcus
How it was run: as §2

MRSA ATCC 700699 = assay: microbe, parasite or virus in culture; details: Staphylococcus aureus
How it was run: as §2

[1] = system: Staphylococcus aureus ATCC 29213; assay: microbe, parasite or virus in culture; details: Staphylococcus aureus, ATCC29213
How it was run: as §2

M. smegmatis ATCC 607 = assay: microbe, parasite or virus in culture; details: Mycolicibacterium smegmatis, ATCC607
How it was run: as §2

MRSA DM21455 (eye) = assay: microbe, parasite or virus in culture; details: Staphylococcus aureus, MRSA
How it was run: as §2

Row | MIC A baumannii (A. baumannii) | MIC (MRSA) (MRSA) | MIC Ecoli (E. coli) | SMILES | MIC (ATCC 29212) | MIC (MRSA DR 42412 (sputum)) | MIC (VRE ATCC 700802) | MIC (MRSA ATCC 700699) | MIC [1] | MIC (M. smegmatis ATCC 607) | MIC (MRSA DM21455 (eye))
1 | 2 µg/mL (≈ 0.981 µM) | 8 µg/mL (≈ 3.92 µM) | 16 µg/mL (≈ 7.84 µM) | CC[C@@H](C)[C@@H](NC(=O)[C@@H](CCC(N)=O)NC(=O)[C@H](CCCCNC(=O)[C@H](CCCCN)NC(=O)[C@H](CCCCN)NC(=O)[C@H](CCCCN)NC(=O)[C@H](CCCCN)NC(=O)[C@H](CCCCN)NC(=O)[C@@H](N)CCCNC(=N)N)NC(=O)[C@@H](NC(=O)[C@@H](Cc1ccccc1)NC)[C@@H](C)CC)C(=O)N[C@H](C(=O)N[C@@H](CO)C(=O)N[C@H]1C(=O)N[C@@H](C)C(=O)N[C@@H](CC(C)C)C(=O)N[C@@H]([C@@H](C)CC)C(=O)O[C@H]1C)[C@@H](C)CC [Compound 54, Leu10-Teixobactin-3-(S3K-K5R) conjugate] (I: H-[dNMeF]IK[dQ][dI]IS[dT]ALI / II: H-RKKKKK; amide I:3-II:C; ester I:8-I:C) |  |  |  |  |  |  | 
2 |  |  |  | CN[C@H](CC(C)C)C(=O)N[C@H]1C(=O)N[C@@H](CC(N)=O)C(=O)N[C@H]2C(=O)N[C@H]3C(=O)N[C@H](C(=O)N[C@H](C(=O)O)c4cc(O)cc(O)c4-c4cc3ccc4O)[C@H](O)c3ccc(c(Cl)c3)Oc3cc2cc(c3O[C@@H]2O[C@H](CO)[C@@H](O)[C@H](O)[C@H]2O[C@H]2C[C@](C)(N)[C@H](O)[C@H](C)O2)Oc2ccc(cc2Cl)[C@H]1O [Vancomycin, reference compound] | > 4 µg/mL | 2 µg/mL (≈ 1.38 µM) | > 4 µg/mL | 2 µg/mL (≈ 1.38 µM) | 4 µg/mL (≈ 2.76 µM) | > 64 µg/mL | 2 µg/mL (≈ 1.38 µM)
